# Measured values from publication PMC9465178, “Cinnamaldehyde derivatives act as antimicrobial agents against Acinetobacter baumannii through the inhibition of cell division” (Frontiers in Microbiology, 2022).
# Read-outs that look alike come from different tables or passages of the source. Peptide text beside a SMILES is read from it. * marks the point of attachment. βNA = c1ccc2cc(N*)ccc2c1
# What was measured:
# A. baumannii ATCC 19606 [1] = test: MIC, microbroth dilution (EUCAST); format: cell-based, Acinetobacter baumannii
# Method: (§1) Reference bacterial strains were obtained from the American Type Culture Collection (ATCC). Vancomycin resistant Enterococcus faecium (VRE 734, wastewater isolate from the Venter Laboratory Collection) was isolated on Bile Esculin agar (Oxoid, Australia) containing 6 μg/mL vancomycin and identified using MALDI-TOF mass spectrometry (Bruker, Preston, Victoria, Australia, Australian Center for Antimicrobial Resistance Ecology). The Pseudomonas aeruginosa WT PAO1 and Escherichia coli with deletions of both acrA and acrB genes encoding drug efflux pumps were obtained from the Venter laboratory stock ([Welch et al., 2010]). The protocol for microbial growth was adopted from the European Committee on Antimicrobial Susceptibility Testing (EUCAST) ([European Committee for Antimicrobial Susceptibility Testing, 2016]).
# (§2) Non-fastidious bacteria and clinical isolates were maintained in Mueller Hinton (MH) broth (Acumedia, United Kingdom) supplemented with 15% (v/v) glycerol (Chem-Supply, Australia), cultured on Mueller Hinton (MH) agar (Acumedia, United Kingdom) plated and incubated at 37°C. Fastidious bacteria were maintained in Brain Heart Infusion (BHI) broth (Acumedia, United Kingdom) supplemented with 15% (v/v) glycerol at −80°C. The fastidious bacteria were cultured on MH agar plates supplemented with 5% (v/v) lysed horse blood and 3% (v/v) fetal bovine serum and incubated at 30°C in the presence of 5% CO2. Drug susceptibility assays were carried out with the non-fastidious cultures grown in cation-adjusted Mueller Hinton (CaMH) broth (Becton Dickinson, France). Streptococcus pyogenes was grown in CaMH broth supplemented with 5% (v/v) lysed horse blood and 3% (v/v) fetal bovine serum whereas Enterococcus faecium was grown in BHI broth.
# (§3) The minimum inhibitory concentrations (MICs) for all six compounds were determined using the microbroth dilution protocol as per EUCAST with an inoculum of approximately […] in an exponential growth phase ([European Committee for Antimicrobial Susceptibility Testing, 2016]). Bacterial suspension, 100 μL/well, was added to 100 μL/well of drug dilutions, then incubated for 18 h at 37°C. Fastidious bacterial suspensions were instead incubated at 30°C in the presence of 5% CO2. Bacterial growth was assessed by measuring the change in A600 nm between time 0 and 18 h (Cytation5® Cell Imaging Multi-Mode Reader, Bio-Tek®). Levofloxacin was used as the positive control. Assays were completed in duplicate in at least three independent experiments.
# A. baumannii XDR UW 5075 = test: MIC, microbroth dilution (EUCAST); format: cell-based, Acinetobacter baumannii
# Method: as §1, §2, §3
# [2] = system: Enterobacter aerogenes ATCC 13408; test: Antibacterial activity (MIC), microbroth dilution; format: cell-based; settings: Klebsiella aerogenes, ATCC13408; Enterobacter aerogenes ATCC 13408; unit inferred; read-out: Antibacterial activity (MIC)
# Method: as §1, §2, §3
# [3] = system: Escherichia coli ATCC 35218; test: Antibacterial activity (MIC), microbroth dilution; format: cell-based; settings: ATCC35218; Escherichia coli ATCC 35218; unit inferred; read-out: Antibacterial activity (MIC)
# Method: as §1, §2, §3
# [4] = system: Escherichia coli WT BW 25113; test: Antibacterial activity (MIC), microbroth dilution; format: cell-based
# Method: as §1, §2, §3
# [5] = system: Klebsiella pneumoniae ATCC 13883; test: Antibacterial activity (MIC), microbroth dilution; format: cell-based; settings: ATCC13883; Klebsiella pneumoniae ATCC 13883; unit inferred; read-out: Antibacterial activity (MIC)
# Method: as §1, §2, §3
# [6] = system: Klebsiella pneumoniae ATCC 33495; test: Antibacterial activity (MIC), microbroth dilution; format: cell-based; settings: ATCC33495; Klebsiella pneumoniae ATCC 33495; unit inferred; read-out: Antibacterial activity (MIC)
# Method: as §1, §2, §3
# [7] = system: Klebsiella pneumoniae ATCC 4352; test: Antibacterial activity (MIC), microbroth dilution; format: cell-based; settings: ATCC4352; Klebsiella pneumoniae ATCC 4352; unit inferred; read-out: Antibacterial activity (MIC)
# Method: as §1, §2, §3
# [8] = system: Methicillin resistant Staphylococcus aureus; test: Antibacterial activity (MIC), microbroth dilution; format: cell-based; settings: ATCC 43300 / MRSA; Methicillin resistant Staphylococcus aureus (MRSA ATCC 43300); unit inferred; read-out: Antibacterial activity (MIC)
# Method: as §1, §2, §3
# [9] = system: Pseudomonas aeruginosa ATCC 27853; test: Antibacterial activity (MIC), microbroth dilution; format: cell-based; settings: ATCC27853; Pseudomonas aeruginosa ATCC 27853; unit inferred; read-out: Antibacterial activity (MIC)
# Method: as §1, §2, §3
# [10] = system: Pseudomonas aeruginosa WT PAO1; test: Antibacterial activity (MIC), microbroth dilution; format: cell-based; settings: Pseudomonas aeruginosa WT PAO1; unit inferred; read-out: Antibacterial activity (MIC)
# Method: as §1, §2, §3
# [11] = system: Streptococcus pneumoniae (type 3, mucoid strain) ATCC 6303; test: Antibacterial activity (MIC), microbroth dilution; format: cell-based; settings: ATCC6303; Streptococcus pneumoniae ATCC 6303; unit inferred; read-out: Antibacterial activity (MIC)
# Method: as §1, §2, §3
# [12] = system: Streptococcus pyogenes ATCC 10389; test: Antibacterial activity (MIC), microbroth dilution; format: cell-based; settings: ATCC10389; Streptococcus pyogenes ATCC 10389; unit inferred; read-out: Antibacterial activity (MIC)
# Method: as §1, §2, §3
# [13] = system: A. baumannii ATCC 19606 and UW 5075; test: Outer membrane permeabilisation, nitrocefin hydrolysis; format: cell-based, Acinetobacter baumannii; settings: PAβN at 100 or 200 µg/mL, nitrocefin hydrolysis at 490 nm
# Method: A. baumannii ATCC 19606 and the extensively resistant strain UW 5075 were assayed for permeabilisation of the outer membrane by the efflux pump inhibitor PAβN. Nitrocefin was added to the cells that received no treatment (black circles), cells treated with the outer membrane permeabilizer polymyxin B (PMB, red squares) or PAβN at 100 µg/mL (light blue triangles) or 200 µg/mL (dark blue triangles). Nitrocefin hydrolysis by the periplasmic β-lactamase was observed as an increase in absorbance at 490 nm. Representative traces are shown from triplicate experiments performed on different days. Symbols represent the mean of triplicate readings ± SEM.
# E. coli = settings: cited from earlier work
# E. coli FtsZ [14] = system: E. coli FtsZ; set-up: method as in Domadia et al., 2007; settings: ref Domadia et al., 2007, read-out: IC50, GTPase activity; cited from earlier work
# E. coli FtsZ [15] = settings: E. coli FtsZ; ref Domadia et al., 2007; cited from earlier work
# A. baumannii ATCC 19606 [16] = test: Cell division phenotype by light microscopy; format: cell-based, Acinetobacter baumannii; settings: divin at 64 μg/mL
# Method: Morphological changes of bacteria when exposed to the compounds were assessed microscopically using the assay as previously described ([Chai et al., 2020]). Eppendorf® tubes were set up with A. baumannii ATCC 19606 as described for the time-kill assays. At time 0, 1, 3, 6, and 18 h, an aliquot of the bacterial suspension (1 μL) was transferred onto a glass slide and viewed under a light microscope (Olympus CX33®) at 100 × magnification. Representative images were captured using JENOPTIK GRYPHAX® imaging.
# A 1 μL aliquot was taken out at varying timepoints (0, 1, 3, 6, and 18 h) and imaged by light microscopy. The images for 6 h are depicted here. […] The white arrow indicates “grooving” site, an indication of where separation of daughter cells should take place. Scale bar is 50 μm.
# Four of the compounds (LXC 31, 33, 35 and 41) were tested at 1× and 2× their minimum inhibitory concentration (MIC) whereas LXC 36 and 43 were tested at 2× and 4× MIC. The phenotypic changes in A. baumannii morphology were analysed under a light microscope (100× magnification) at time 0, 1, 3, 6 and 18 h. Scale bar is 50 µm.
# human red blood cells = test: Hemolysis assay; format: cell-based
# Method: The hemolysis assay was performed using fresh human red blood cells (RBCs). […] These were performed in quadruplicate. Thereafter, 192 μL RBCs were added into all wells and the plates were incubated at 37°C under constant shaking (100 rpm) for 1 h. RBCs were precipitated by centrifugation of the plates (1,000× g for 3 min). An aliquot (100 μL) of each supernatant was transferred into a new 96-microwell plate and the A450 nm was determined using a PerkinElmer Enspire® plate reader. The fraction of intact RBC for each sample was determined as fraction of the intact RBCs for the sample without the addition of compounds (set at 100%) and plotted as a function of compound concentration.
# A 1% (v/v) Triton X-100 was used to indicate complete RBC lysis (^‡). […] The assays were performed in quadruplicates. The plates were incubated at 37°C while constantly shaking at 100 rpm for 1 h. Intact RBCs were removed by centrifugation and the presence of hemolytic products in the supernatant were determined by measuring the absorbance at A450 nm. The results are presented in mean ± SEM. Statistical analysis was performed using one-way ANOVA and the asterisks (*) represent statistical significance (*p < 0.05; **p < 0.005; ***p < 0.0005; ****p < 0.0001).
# [17] = Acinetobacter baumannii, ATCC19606, A. baumannii ATCC 19606, 18 h, 37°C, read-out: MIC
# [18] = Acinetobacter baumannii, XDRUW5075, 18 h
# [19] = WTBW25113, Escherichia coli WT BW 25113, unit inferred, read-out: Antibacterial activity (MIC)
molecule,measurement,setting,value
"CC1(C)S[C@@H]2[C@H](NC(=O)[C@H](N)c3ccc(O)cc3)C(=O)N2[C@H]1C(=O)O [Amoxycillin, reference compound]",MIC,A. baumannii ATCC 19606 [1]; [17],64 µg/mL
same,MIC,A. baumannii XDR UW 5075; [18],1020 µg/mL
"CNC(C)C1CCC(N)C(OC2C(N)CC(N)C(OC3OCC(C)(O)C(NC)C3O)C2O)O1 (stereo not shown) [Gentamicin, reference compound]",MIC,"A. baumannii ATCC 19606 [1]; Acinetobacter baumannii, ATCC19606, 18 h",16 µg/mL
same,MIC,A. baumannii XDR UW 5075; [18],> 1020 µg/mL
"C[C@@H](O)[C@H]1C(=O)N2C(C(=O)O)=C(SCCN=CN)C[C@H]12 [Imipenem, reference compound]",MIC,A. baumannii ATCC 19606 [1]; [17],1 µg/mL
same,MIC,A. baumannii XDR UW 5075; [18],128 µg/mL
"C[C@H]1COc2c(N3CCN(C)CC3)c(F)cc3c(=O)c(C(=O)O)cn1c23 [Levofloxacin, reference compound]",MIC,A. baumannii ATCC 19606 [1]; [17],0.5 µg/mL
same,MIC,A. baumannii XDR UW 5075; [18],8 µg/mL
same,MIC,[2],1 µg/mL
same,MIC,[3],0.004 µg/mL
same,MIC,"[4]; Escherichia coli, WTBW25113, read-out: Antibacterial activity (MIC)",0.25 µg/mL
same,MIC,[5],1 µg/mL
same,MIC,[6],1 µg/mL
same,MIC,[7],1 µg/mL
same,MIC,[8],1 µg/mL
same,MIC,[9],1 µg/mL
same,MIC,[10],0.5 µg/mL
same,MIC,[11],1 µg/mL
same,MIC,[12],1 µg/mL
"Cc1onc(-c2ccccc2)c1C(=O)N[C@@H]1C(=O)N2[C@@H]1SC(C)(C)[C@@H]2C(=O)O [OXA, oxacillin, reference compound]",MIC,[2],> 16 µg/mL
same,MIC,[3],> 64 µg/mL
same,MIC,[4]; [19],> 64 µg/mL
same,MIC,[5],> 64 µg/mL
same,MIC,[6],> 64 µg/mL
same,MIC,[7],> 64 µg/mL
same,MIC,[8],16 µg/mL
same,MIC,[9],> 64 µg/mL
same,MIC,[10],> 64 µg/mL
"NC(N)=NCCC[C@H](NC(=O)[C@@H](N)Cc1ccccc1)C(=O)Nc1ccc2ccccc2c1 [PAβN, phenylalanine arginine-β-naphthylamide] (H-Phe-Arg-βNA)",Damage of the bacterial outer membrane,[13],does not damage the bacterial outer membrane
"CO[C@H]1/C=C/O[C@@]2(C)Oc3c(C)c(O)c4c(O)c(c(/C=N/N5CCN(C)CC5)c(O)c4c3C2=O)NC(=O)/C(C)=C\C=C\[C@H](C)[C@H](O)[C@@H](C)[C@@H](O)[C@@H](C)[C@H](OC(C)=O)[C@@H]1C [RIF, rifampicin, reference compound]",MIC,[2],16 µg/mL
same,MIC,[3],> 16 µg/mL
same,MIC,[4]; [19],> 16 µg/mL
same,MIC,[5],8 µg/mL
same,MIC,[6],32 µg/mL
same,MIC,[7],> 64 µg/mL
same,MIC,[8],32 µg/mL
same,MIC,[9],32 µg/mL
same,MIC,[10],32 µg/mL
O=C/C=C/c1ccccc1 [cinnamaldehyde],MIC,"E. coli; ref Domadia et al., 2007, Li et al., 2015a",1000 µg/mL
same,Mechanism of action (bacteriostatic),"E. coli; ref Domadia et al., 2007",bacteriostatic
same,IC50,E. coli FtsZ [14],5.8 µM
same,"ED50, self-polymerization",E. coli FtsZ [15],6.9 µM
"Cc1nc2ccccc2n1CCC(=O)NN=Cc1c(O)ccc2ccccc12 [divin, reference compound]",Cell morphology,A. baumannii ATCC 19606 [16],elongated cell shape
Colistin [reference compound],MIC,"A. baumannii ATCC 19606 [1]; A. baumannii ATCC 19606, 18 h, 37°C",2 µg/mL
same,MIC,"A. baumannii XDR UW 5075; A. baumannii XDR UW 5075, 18 h, 37°C",2 µg/mL
Triton X-100 [reference compound],Hemolytic activity,human red blood cells,completely disrupt the red blood cells
